According to patent publication US4666932A, “Formamidine derivatives and pharmaceutical use” (Istituto de Angeli S.p.A., priority 1982, dated 1987):

Assays:
[1] = target: T1, histamine H2 -receptors (Cavia porcellus, UniProt P47747); assay: In vitro inhibition of histamine induced tachycardia (positive chronotropic effect), isolated guinea pig atria; type: cell-based; conditions: 32° C., pH 7.4, 30 minutes contact before histamine 10^-6 g.ml^-1
T1 construct: isolated guinea pig atria suspended in an organ bath (50 ml); from tissue; host or cells: isolated guinea pig atria
Description: The myocardial preparation, loaded with 1 g isometric tension, was allowed to stabilize 60 minutes, and myocardial contractions were recorded through an isometric lever connected to a strain-gauge coupler and the instantaneous rate was monitored with a cardiotachometer, and a heatwriting pen recorder. After two control responses to histamine (10^-6 g.ml^-1) the test compound was added to the bath at the desired final concentration and left for 30 minutes before the atria were again challenged with histamine. The chronotropic response obtained in the presence of the antagonist was then compared to the control response to histamine, and the percent reduction of the histamine H2 -evoked response was calculated. […] 3, Smooth muscle, Ed. Daniel E. E. Paton, M., Plenum Press, New York, (1975); Ash and Schild, Br. J. Pharmacol. Chemother. 27, 427-439, 1966.

[2] = target: T2, histamine H2 -receptors (Rattus norvegicus, UniProt P25102); assay: In vivo antisecretory activity in histamine-induced gastric secretion (stomach-perfused rat); conditions: i.v., histamine 1 mg.kg^-1 hr^-1 intravenous, urethane anesthesia, values expressed taking the compound as a base
T2 construct: from tissue; host or cells: stomach of the living, anaesthetised rat (in vivo)
Source text: The ability of the test compounds to inhibit histamine-induced gastric secretion of acid was investigated after intravenous or intraduodenal administration in stomach-perfused rats, according to Gosh and Schild (Br. J. Pharmacol. Chemother. 13, 54, 1958).
The preparation of the animals under general anesthesia (urethane, lg.kg^-1 i.p.) and constant temperature, was achieved by inserting and tying in place polyethylene tubes (PE 50) in the esophagus and in the pyloric-antral region. After the stomach was washed to remove residual of foods, continuous perfusion of the stomach was started with saline, 0.5 ml.min^-1 (37° C.), primed by a Jobling peristaltic pump. After 30 minutes of perfusion adaptation, the stomach perfusate was collected in 30 minute samples, and titrated for acid content, expressed as μEq of NaOH 1N. As control acid output became constant, intravenous perfusion of histamine (1 mg.kg^-1 hr^-1) was started and maintained throughout the experimental period. After the acid secretion had reached the steadily higher level, increasing doses of the test compound were injected intravenously in order to obtain dose-response functions. The ED50 was then calculated by standard procedure.

[3] = system: gastric acid secretion; conditions: prior art statement; cited from earlier work

T1 sequence (P47747 whole entry): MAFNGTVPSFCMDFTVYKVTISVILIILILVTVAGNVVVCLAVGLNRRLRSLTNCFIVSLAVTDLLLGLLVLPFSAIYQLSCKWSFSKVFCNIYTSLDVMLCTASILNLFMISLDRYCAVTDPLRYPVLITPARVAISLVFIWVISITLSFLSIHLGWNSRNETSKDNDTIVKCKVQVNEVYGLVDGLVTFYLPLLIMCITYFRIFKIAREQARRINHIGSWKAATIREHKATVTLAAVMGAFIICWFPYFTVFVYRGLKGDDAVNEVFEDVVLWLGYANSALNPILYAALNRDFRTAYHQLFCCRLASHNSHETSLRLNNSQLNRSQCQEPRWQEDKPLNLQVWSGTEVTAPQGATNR
T2 sequence (P25102 whole entry, the tested form may be a part): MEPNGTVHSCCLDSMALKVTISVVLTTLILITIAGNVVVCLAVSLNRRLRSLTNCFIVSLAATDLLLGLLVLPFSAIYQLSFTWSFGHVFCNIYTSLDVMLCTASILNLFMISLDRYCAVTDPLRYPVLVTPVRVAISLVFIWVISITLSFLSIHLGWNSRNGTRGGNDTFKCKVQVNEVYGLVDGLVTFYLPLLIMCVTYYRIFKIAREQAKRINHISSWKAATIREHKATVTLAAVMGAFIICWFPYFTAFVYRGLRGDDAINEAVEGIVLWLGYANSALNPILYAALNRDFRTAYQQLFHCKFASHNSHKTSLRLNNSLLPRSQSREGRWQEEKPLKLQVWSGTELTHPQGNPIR

EC50 [1] | ED50 [2] | SMILES | effect on gastric acid secretion [3]
1600 nM | 0.046 mg/kg | N#CCCNC=Nc1ccc(-c2c[nH]cn2)cc1 [6 (j), N-(2-Cyano-ethyl)-N'-[4-(imidazol-4-yl)-phenyl]-formamidine] | 
294 nM | 0.09 mg/kg | C=CCNC=Nc1ccc(-c2c[nH]cn2)cc1C [6 (l), N-Allyl-N'-[4-(imidazol-4-yl)-2-methyl-phenyl]-formamidine] | 
1270 nM | 0.043 mg/kg | CC(O)CNC=Nc1ccc(-c2c[nH]cn2)cc1 (stereo not drawn) [6 (a), N-(2-hydroxypropyl)-N'-[4-(imidazol-4-yl)-phenyl]-formamidine] | 
600 nM | 0.059 mg/kg | CCCNC=Nc1ccc(-c2c[nH]cn2)cc1OC [6 (m), N-Propyl-N'-[2-methoxy-4-(imidazol-4-yl)-phenyl]-formamidine] | 
 |  | CN/C(=N/CCSCc1nc[nH]c1C)NC#N [CIMETIDINE, cimetidine] | capable of antagonizing gastric acid secretion
588 nM | 0.05 mg/kg | COCCN=CNc1ccc(-c2c[nH]cn2)cc1 [Example 6, N-(2-Methoxy-ethyl)-N'-[4-(imidazol-4-yl)-phenyl]-formamidine] | 
 |  | CNC(=S)NCCCCc1cnc[nH]1 [burimamide] | capable of antagonizing gastric acid secretion
 |  | CNC(=NCCSCc1csc(N=C(N)N)n1)NC#N [tiotidine] | capable of antagonizing gastric acid secretion to a greater extent than cimetidine
 |  | C/N=C(\S)NCCSCc1[nH]cnc1C [metiamide] | capable of antagonizing gastric acid secretion
 |  | COc1ccc(CN(CCN(C)C)c2ccccn2)cc1 [mepyramine] | no effect on gastric acid secretion
309 nM | 0.078 mg/kg | CCCCNC=Nc1ccc(-c2c[nH]cn2)cc1C [6 (k), N-n-Butyl-N'-[4-(imidazol-4-yl)-2-methyl-phenyl]-formamidine] | 
327 nM | 0.022 mg/kg | CSCCNC=Nc1ccc(-c2c[nH]cn2)cc1 [6 (b), N-(2-Methylthio-ethyl)-N'-[4-(imidazol-4-yl)-phenyl]-formamidine] | 
320 nM | 0.083 mg/kg | CCOCSCCNC=Nc1ccc(-c2c[nH]cn2)cc1 [8 (b), N-(2-Ethoxymethylthio-ethyl)-N'-[4-(imidazol-4-yl)-phenyl]-formamidine] | 
350 nM | 0.117 mg/kg | CCCNC=Nc1ccc(-c2c[nH]cn2)cc1Br [8 (c), N-n-Propyl-N'-[2-bromo-4-(imidazol-4-yl)-phenyl]-formamidine] | 
 |  | CNC(=C[N+](=O)[O-])NCCSCc1ccc(CN(C)C)o1 [ranitidine] | capable of antagonizing gastric acid secretion to a greater extent than cimetidine
